Experimental data as given in publication PMC5377825, “Catalytic Determinants of Alkene Production by the Cytochrome P450 Peroxygenase OleTJE” (The Journal of Biological Chemistry, 2017).
Residue numbers refer to the chain shown, from its start. Like-named read-outs stand apart in the source and are kept apart here.

What was measured:
Assay in all cases: UV-visible heme spectral titration
Type in all cases: binding
OleTJE (CYP152L1) [1] = molecular target: T1, OleTJE (CYP152L1) (Jeotgalicoccus sp. ATCC 8456, UniProt E9NSU2, F79A)
T1 construct: gene JEM45_03820; full length, codon-optimized gene in modified pET15b, N-terminal polyhistidine tag with TEV site; tag kept for spectroscopy, cleaved for crystallography; expressed in E. coli C41 (DE3)
T1 sequence (E9NSU2 1-422 F79A): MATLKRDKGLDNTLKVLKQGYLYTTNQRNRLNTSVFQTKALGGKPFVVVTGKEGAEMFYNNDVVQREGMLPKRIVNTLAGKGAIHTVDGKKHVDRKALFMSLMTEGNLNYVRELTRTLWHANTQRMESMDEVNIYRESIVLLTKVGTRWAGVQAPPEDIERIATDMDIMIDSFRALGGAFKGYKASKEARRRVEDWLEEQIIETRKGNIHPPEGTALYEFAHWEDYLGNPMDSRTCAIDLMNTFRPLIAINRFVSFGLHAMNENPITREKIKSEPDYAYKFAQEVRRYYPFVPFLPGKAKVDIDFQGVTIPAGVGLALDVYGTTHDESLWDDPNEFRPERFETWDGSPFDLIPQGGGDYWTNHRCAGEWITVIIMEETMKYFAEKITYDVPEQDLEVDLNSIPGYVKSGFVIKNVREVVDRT
Description: (§1) UV-visible heme spectral titration on OleTJE (CYP152L1)

OleTJE (CYP152L1) [2] = molecular target: T2, OleTJE (CYP152L1) (Jeotgalicoccus sp. ATCC 8456, UniProt E9NSU2)
T2 construct: gene JEM45_03820; full length, codon-optimized gene in modified pET15b, N-terminal polyhistidine tag with TEV site; tag kept for spectroscopy, cleaved for crystallography; expressed in E. coli C41 (DE3)
T2 sequence (E9NSU2 1-422): T1 sequence (E9NSU2 1-422 F79A) with A79F
Description: as §1

OleTJE (CYP152L1) [3] = molecular target: T3, OleTJE (CYP152L1) (Jeotgalicoccus sp. ATCC 8456, UniProt E9NSU2, R245E); details: read-out: Fatty acid Kd (HS) / C10:0
T3 construct: gene JEM45_03820; full length, codon-optimized gene in modified pET15b, N-terminal polyhistidine tag with TEV site; tag kept for spectroscopy, cleaved for crystallography; expressed in E. coli C41 (DE3)
T3 sequence (E9NSU2 1-422 R245E): T1 sequence (E9NSU2 1-422 F79A) with A79F, R245E
Description: as §1

OleTJE (CYP152L1) [4] = molecular target: T4, OleTJE (CYP152L1) (Jeotgalicoccus sp. ATCC 8456, UniProt E9NSU2, F79Y)
T4 construct: gene JEM45_03820; full length, codon-optimized gene in modified pET15b, N-terminal polyhistidine tag with TEV site; tag kept for spectroscopy, cleaved for crystallography; expressed in E. coli C41 (DE3)
T4 sequence (E9NSU2 1-422 F79Y): T1 sequence (E9NSU2 1-422 F79A) with A79Y
Description: as §1

OleTJE (CYP152L1) [5] = molecular target: T5, OleTJE (CYP152L1) (Jeotgalicoccus sp. ATCC 8456, UniProt E9NSU2, F79W)
T5 construct: gene JEM45_03820; full length, codon-optimized gene in modified pET15b, N-terminal polyhistidine tag with TEV site; tag kept for spectroscopy, cleaved for crystallography; expressed in E. coli C41 (DE3)
T5 sequence (E9NSU2 1-422 F79W): T1 sequence (E9NSU2 1-422 F79A) with A79W
Description: as §1

OleTJE (CYP152L1) [6] = molecular target: T6, OleTJE (CYP152L1) (Jeotgalicoccus sp. ATCC 8456, UniProt E9NSU2, H85Q)
T6 construct: gene JEM45_03820; full length, codon-optimized gene in modified pET15b, N-terminal polyhistidine tag with TEV site; tag kept for spectroscopy, cleaved for crystallography; expressed in E. coli C41 (DE3)
T6 sequence (E9NSU2 1-422 H85Q): T1 sequence (E9NSU2 1-422 F79A) with A79F, H85Q
Description: as §1

[7] = read-out: Fatty acid Kd (HS) / C10:0
[8] = read-out: Fatty acid Kd (HS) / C12:0
[9] = read-out: Fatty acid Kd (HS) / C14:0
[10] = read-out: Fatty acid Kd (HS) / C16:0
[11] = read-out: Fatty acid Kd (HS) / C18:0
[12] = read-out: Fatty acid Kd (HS) / C20:0

CCCCCCCCCC(=O)O [C10:0, decanoic acid]
Kd (OleTJE (CYP152L1) [1]; [7]): 465 ± 11 µM | Kd (OleTJE (CYP152L1) [2]; [7]): 47.1 ± 2.1 µM | Kd (OleTJE (CYP152L1) [3]): 1260 ± 160 µM

CCCCCCCCCCCC(=O)O [C12:0, dodecanoic acid]
Kd (OleTJE (CYP152L1) [1]; [8]): 55 ± 4.8 µM | Kd (OleTJE (CYP152L1) [4]; [8]): 196 ± 5 µM | Kd (OleTJE (CYP152L1) [5]; [8]): 106 ± 9 µM | Kd (OleTJE (CYP152L1) [6]; [8]): 37.3 ± 2.5 µM | Kd (OleTJE (CYP152L1) [2]; [8]): 11.7 ± 0.43 µM

CCCCCCCCCCCCCC(=O)O [C14:0, tetradecanoic acid]
Kd (OleTJE (CYP152L1) [1]; [9]): 39.1 ± 2.5 µM | Kd (OleTJE (CYP152L1) [4]; [9]): 30.7 ± 1 µM | Kd (OleTJE (CYP152L1) [5]; [9]): 24.1 ± 0.9 µM | Kd (OleTJE (CYP152L1) [6]; [9]): 10.5 ± 0.1 µM | Kd (OleTJE (CYP152L1) [2]; [9]): 1.45 ± 0.05 µM

CCCCCCCCCCCCCCCC(=O)O [C16:0, hexadecanoic acid]
Kd (OleTJE (CYP152L1) [1]; [10]): 22.6 ± 1.9 µM | Kd (OleTJE (CYP152L1) [5]; [10]): 12.7 ± 0.7 µM | Kd (OleTJE (CYP152L1) [6]; [10]): 5.36 ± 0.18 µM | Kd (OleTJE (CYP152L1) [2]; [10]): 1.73 ± 0.08 µM

CCCCCCCCCCCCCCCCCC(=O)O [C18:0, octadecanoic acid]
Kd (OleTJE (CYP152L1) [1]; [11]): 8.7 ± 0.5 µM | Kd (OleTJE (CYP152L1) [5]; [11]): 4.52 ± 0.2 µM | Kd (OleTJE (CYP152L1) [6]; [11]): 5.92 ± 0.08 µM | Kd (OleTJE (CYP152L1) [2]; [11]): 4.09 ± 0.16 µM

CCCCCCCCCCCCCCCCCCCC(=O)O [C20:0, eicosanoic acid]
Kd (OleTJE (CYP152L1) [1]; [12]): 3.4 ± 0.3 µM | Kd (OleTJE (CYP152L1) [4]; [12]): 4.25 ± 0.21 µM | Kd (OleTJE (CYP152L1) [5]; [12]): 4.41 ± 0.27 µM | Kd (OleTJE (CYP152L1) [6]; [12]): 5.27 ± 0.05 µM | Kd (OleTJE (CYP152L1) [2]; [12]): 4.43 ± 0.19 µM
